Values of other authors in patent US20260201030A1, “ANTIBODY, ANTIBODY-DRUG CONJUGATE THEREOF AND USE THEREOF” (EVOPOINT BIOSCIENCES CO., LTD., priority 2021, published 2026).

Conditions: FL118 alone; cited from earlier work

SMILES: CC[C@@]1(O)C(=O)OCc2c1cc1n(c2=O)Cc2cc3cc4c(cc3nc2-1)OCO4 [FL118, (20S)-10,11-methylenedioxy camptothecin]
- water solubility: extremely poor water solubility
